From US6596497B1, “Screening of antiviral compounds targeted to the HIV-1 gp41 core structure” (New York Blood Center, Inc., priority 1999, dated 2003)
Converted amounts (≈) assume the structure as drawn.

Legend:
[1] = biological target: T1, N-36/C-34 complex (HIV-1 gp41 core) (Human immunodeficiency virus type 1 group M subtype B, UniProt P04578); assay: biochemical; type: binding; conditions: for Inhibitory activity on complex formation by N-36 and C-34 (in words): no concentration stated; for Inhibition of NC-1 detectable complex formation by N-36 and C-34 (in words): compounds at 10 μg/ml, FIG. 13
T1 construct: Peptides derived from the NHR and CHR regions of gp41, designated N- and C-peptides; made in house; host or cells: chemical synthesis (solid-phase FMOC)
Procedure: For detection of peptide complexes, a direct and a sandwich ELISA were used. In the direct ELISA, the N- and C-peptides were mixed at equimolar concentration in PBS and diluted in coating buffer. Then, the peptide complexes were directly coated onto the wells of microplate. In the sandwich ELISA, the plate was coated with IgG (10 μg/ml) purified from rabbit antisera directed against N36(L6)C34, followed by the addition of the peptide complexes formed by mixing N- and C-peptides in PBS in equimolar concentrations. To screen for antiviral agents, compounds were pre-incubated with N-peptides at 37° C. for 30 minutes before mixing with the C-peptides. The binding of the peptide complexes to the antibodies was then detected as described above.
The percentage of inhibition by the compounds of the binding of NC-1 to the peptide complexes was calculated as described in Jiang, S., K. Lin, and A. R. Neurath, 1991, “Enhancement of human immunodeficiency virus type-1 (HIV-1) infection by antisera to peptides from the envelope glycoproteins gp120/gp41”, J. Exp. Med., 174, 1557-1563.
A sandwich ELISA was established to screen for compounds that interfere with the formation of the N-36/C-34 complex. N-36 (2 μM) was preincubated with compounds at graded concentrations at 37° C. for 30 minutes, followed by the addition of C-34 (2 μM). After incubation at 37° C. for 30 minutes, the mixture was added to wells of a 96-well polystyrene plate (Immulon I, Dynatech Laboratories, Inc., Chantilly, Va.) which were precoated with IgG (10 μg/ml) purified from rabbit antisera directed against N36(L6)C34. […] Absorbance at 450 nm (A450) was read using an ELISA reader (Dynatech Laboratories, Inc., Chantilly, Va.). The percentage of inhibition by the compounds of the binding of NC-1 to the peptide complexes was calculated as described in Jiang S., K. Lin, and A. R. Neurath, 1991, “Enhancement of human immunodeficiency virus type-1 (HIV-1) infection by antisera to peptides from the envelope glycoproteins gp120/gp41”, J. Exp. Med., 174, 1557-1563. The concentration for 50% inhibition (IC50) was calculated using a computer program, designated Calcusyn (Chou, T.-C., 1991, “The median-effect principle and the combination index for quantitation of synergism and antagonism. In Synergism and Antagonism in Chemotherapy”, T.-C. Chou and D. C. Rideout, editors, Academic Press, San Diego, 61-102).

[2] = tested on: H9/HIV-1IIIB cells and MT-2 cells; assay: cells; type: cell-based; conditions: for IC50: Human immunodeficiency virus 1, MT2, 2 h, read-out: IC50 ± SD Cell fusion; for Inhibitory activity on HIV-1-mediated cell fusion (in words): no concentration stated; for Inhibition of HIV-1-mediated cell fusion (in words): compounds at 10 μg/ml, FIG. 13
Procedure: A dye transfer assay was used for detection of HIV-1-mediated cell fusion as described in Jiang et al., Nature, 365, 113 (1993). H9/HIV-1IIIB cells were labeled with a fluorescent reagent, 2′,7′-bis-(2-carboxyethyl)-5-and-6-carboxyfluorescein acetoxyethyl ester (BCECF-AM), (Molecular Probes, Inc., Eugene, Oreg.) and incubated with MT-2 cells (ratio=1:10) in a 96-well plate at 37° C. for 2 hours in the presence or absence of peptides or compounds tested. The fused and unfused BCECF-labeled HIV-1 infected cells were counted under an inverted fluorescence microscope (Zeiss, Germany) with an eyepiece micrometer discs. The percentage of inhibition of cell fusion was calculated as described in Jiang et al., 1993, Nature, 365, 113.
A dye transfer assay was used for detection of HIV-1 mediated cell fusion as described in Jiang, S., K. Lin, N. Strick, and A. R. Neurath, 1993, Inhibition of HIV-1 infection by a fusion domain binding peptide from HIV-1 envelope glycoprotein gp41, Biochem. Biophys. Res. Commun., 195, 533-538.
H9/HIV-1IIIB cells were labeled with a fluorescent reagent, 2′,7′-bis-(2-carboxyethyl)-5-and-6-carboxyfluorescein acetoxyethyl ester (BCECF-AM) (Molecular Probes, Inc., Eugene, Oreg.) and then incubated with MT-2 cells (ratio=1:10) in 96-well plates at 37° C. for 2 hours in the presence or absence of the compounds tested. The fused and unfused BCECF-labeled HIV-1 infected cells were counted under an inverted fluorescence microscope (Zeiss, Germany) with an eyepiece micrometer disc. The percentage of inhibition of cell fusion and the IC50 values were calculated as described in Jiang et al., (1993), Biochem. Biophys. Res. Commun., 195, 533-538.

[3] = In vitro cytotoxicity, XTT; type: cell-based; conditions: human; 50% cytotoxic concentration, MT-2 cells, no virus; read-out: CC50 ± SD
Procedure: The in vitro cytotoxicity for MT-2 cells of the compounds was determined in 96-well plates using the XTT dye to measure cell viability in the absence of virus. Ten μl of 5% TRITON X-100 were added to the wells corresponding to positive controls (“P”) and 10 μl medium was added to wells corresponding to negative controls (“N”). The percent cytotoxicity was calculated using the following formula: % cytotoxicity=[(E−N)/(P−N)]×100%, wherein “E” represents experimental data in the presence of compounds. The concentration corresponding to 50% cytotoxicity (CC50) for MT-2 cells was calculated using the Calcusyn computer program. The selectivity index (S.I.=CC50/IC50) for each compound was calculated.

HIV-1IIIB = assay: HIV-1-mediated cytopathic effect (CPE), XTT; type: cell-based; conditions: for IC50: Human immunodeficiency virus 1, MT2, read-out: IC50 ± SD CPE; for selectivity ratio at 6 days: human, MT-2 cells, read-out: Selective Index (S.I.) = CC50/IC50 for CPE
Procedure: The inhibitory activity of the compounds was determined by a calorimetric method based on protection of cells against HIV-1-mediated CPE, as described in Jiang et al., (1991), J. Exp. Med., 174, 1557-1563. 1×10^4 MT-2 cells in 96-well plates were infected with diluted HIV-1IIIB in 200 μl RPMI 1640 medium containing 10% FBS in the presence of compounds at graded concentrations. After 1 hour, 24 hours and 4 days, half of the culture media were changed. On the sixth day post infection, an indicator, XTT tetrazolium dye (1 mg/ml; 50 μl/well; PolySciences, Inc., Warrington, Pa.), was added to the cells. After 4 hours, the soluble intracellular formazan was determined calorimetrically at 450 nm. The percent of inhibition of CPE and the IC50 values were calculated as described above.

T1 sequence (P04578 546-581, one chain of several): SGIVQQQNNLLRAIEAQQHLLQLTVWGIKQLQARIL

Cc1ccc(N(C(=O)Nc2ccc(Cl)c(Cl)c2)C(C)c2nc3ccccc3c(=O)[nH]2)c(C)c1 (stereo not drawn) [ADS-J13, N′-(3,4-dichlorophenyl)-N-[1-(4-oxo-3,4-dihydroquinazolin-2-yl)ethyl]-N-2,4-dimethyl phenylurea]
IC50 [1]: > 208 µM | IC50 [2]: > 100 µg/mL | Inhibitory activity on HIV-1-mediated cell fusion (in words) [2]: does not inhibit | CC50 [3]: 39.2 ± 7.6 µg/mL (≈ 81.5 µM) | IC50 (HIV-1IIIB): > 100 µg/mL | selectivity ratio at 6 days (HIV-1IIIB): ≤ 1

CC(c1nc2ccc(Cl)cc2c(=O)n1Cc1ccccc1)N(C(=O)c1ccc([N+](=O)[O-])cc1)c1ccc(F)cc1 (stereo not drawn) [ADS-J5]
IC50 [1]: > 180 µM | IC50 [2]: > 100 µg/mL | CC50 [3]: 30.2 ± 4.84 µg/mL (≈ 54.2 µM) | IC50 (HIV-1IIIB): > 100 µg/mL | selectivity ratio at 6 days (HIV-1IIIB): ≤ 1

COC(=O)c1cc(C(=O)OC)cc(N(C(=O)Nc2ccc(Cl)c(Cl)c2)C(C)c2nc3ccccc3c(=O)n2Cc2ccccc2)c1 (stereo not drawn) [ADS-J15]
IC50 [1]: > 152 µM | IC50 [2]: > 100 µg/mL | CC50 [3]: 20.9 ± 0.67 µg/mL (≈ 31.8 µM) | IC50 (HIV-1IIIB): > 100 µg/mL | selectivity ratio at 6 days (HIV-1IIIB): ≤ 1

[Tyr5,12, Lys7]-polyphemusin II [Compound T-22, reference compound]
Inhibitory activity on complex formation by N-36 and C-34 (in words) [1]: do not inhibit the complex formation

CC(Nc1ccccc1Cl)c1nc2ccccc2c(=O)n1Cc1ccccc1 (stereo not drawn) [ADS-J14]
IC50 [1]: > 256 µM | IC50 [2]: > 100 µg/mL | CC50 [3]: 86.8 ± 5.79 µg/mL (≈ 223 µM) | IC50 (HIV-1IIIB): > 100 µg/mL | selectivity ratio at 6 days (HIV-1IIIB): ≤ 1

Cc1ccc(N=Nc2c(S(=O)(=O)O)cc3cc(S(=O)(=O)O)cc(Nc4nc(Cl)nc(Nc5ccccc5)n4)c3c2O)c(S(=O)(=O)O)c1 [ADS-J2, 5-[(4-chloro-6-phenylamino-1,3,5-triazine-2-yl)-amino]-4-hydroxy-3-[(4-methyl-6-sulfophenyl)azo]-2,7-naphthalene disulfonic acid]
IC50 [1]: 4.4 µM | Inhibitory activity on complex formation by N-36 and C-34 (in words) [1]: promising inhibitory activity | IC50 [2]: 21.9 ± 1.38 µg/mL (≈ 30.3 µM) | Inhibitory activity on HIV-1-mediated cell fusion (in words) [2]: promising inhibitory activity | CC50 [3]: 290 ± 12.4 µg/mL (≈ 402 µM) | IC50 (HIV-1IIIB): 30.8 ± 6.74 µg/mL (≈ 42.6 µM) | selectivity ratio at 6 days (HIV-1IIIB): 9.43 | Inhibitory activity on HIV-1-mediated CPE (in words) (HIV-1IIIB; no concentration stated): promising inhibitory activity

C=Cc1c(C)c2cc3nc(c(CC(=O)O)c4[nH]c(cc5nc(cc1[nH]2)C(C)=C5CC)c(C)c4C(=O)O)[C@@H](CCC(=O)O)[C@@H]3C [chlorin e6, reference compound]
Inhibition of NC-1 detectable complex formation by N-36 and C-34 (in words) [1]: partially inhibited | Inhibitory activity on complex formation by N-36 and C-34 (in words) [1]: some inhibitory activity | Inhibition of HIV-1-mediated cell fusion (in words) [2]: partially inhibited

O=S(=O)(O)c1ccc(-c2c3nc(c(-c4ccc(S(=O)(=O)O)cc4)c4ccc([nH]4)c(-c4ccc(S(=O)(=O)O)cc4)c4nc(c(-c5ccc(S(=O)(=O)O)cc5)c5ccc2[nH]5)C=C4)C=C3)cc1 [MTSPP, meso-tetra(4-sulphonatophenyl)porphyrin, reference compound]
Inhibition of NC-1 detectable complex formation by N-36 and C-34 (in words) [1]: partially inhibited | Inhibitory activity on complex formation by N-36 and C-34 (in words) [1]: some inhibitory activity | Inhibition of HIV-1-mediated cell fusion (in words) [2]: partially inhibited
